The results in this text go back to US12492188B2, “1H-benzo[D]imidazole derivatives as TLR9 inhibitors for the treatment of fibrosis” (BRISTOL-MYERS SQUIBB COMPANY, priority 2020, dated 2025).

As a reminder, the IC50 is the concentration needed to halve the response being measured.

Type in all cases: cell-based
The target in one experiment is T1, human TLR9 (Homo sapiens, UniProt Q9NR96).
T1 construct: host or cells: HEK-Blue cells (HEK293-derived reporter line)
T1 sequence (Q9NR96 26-1032): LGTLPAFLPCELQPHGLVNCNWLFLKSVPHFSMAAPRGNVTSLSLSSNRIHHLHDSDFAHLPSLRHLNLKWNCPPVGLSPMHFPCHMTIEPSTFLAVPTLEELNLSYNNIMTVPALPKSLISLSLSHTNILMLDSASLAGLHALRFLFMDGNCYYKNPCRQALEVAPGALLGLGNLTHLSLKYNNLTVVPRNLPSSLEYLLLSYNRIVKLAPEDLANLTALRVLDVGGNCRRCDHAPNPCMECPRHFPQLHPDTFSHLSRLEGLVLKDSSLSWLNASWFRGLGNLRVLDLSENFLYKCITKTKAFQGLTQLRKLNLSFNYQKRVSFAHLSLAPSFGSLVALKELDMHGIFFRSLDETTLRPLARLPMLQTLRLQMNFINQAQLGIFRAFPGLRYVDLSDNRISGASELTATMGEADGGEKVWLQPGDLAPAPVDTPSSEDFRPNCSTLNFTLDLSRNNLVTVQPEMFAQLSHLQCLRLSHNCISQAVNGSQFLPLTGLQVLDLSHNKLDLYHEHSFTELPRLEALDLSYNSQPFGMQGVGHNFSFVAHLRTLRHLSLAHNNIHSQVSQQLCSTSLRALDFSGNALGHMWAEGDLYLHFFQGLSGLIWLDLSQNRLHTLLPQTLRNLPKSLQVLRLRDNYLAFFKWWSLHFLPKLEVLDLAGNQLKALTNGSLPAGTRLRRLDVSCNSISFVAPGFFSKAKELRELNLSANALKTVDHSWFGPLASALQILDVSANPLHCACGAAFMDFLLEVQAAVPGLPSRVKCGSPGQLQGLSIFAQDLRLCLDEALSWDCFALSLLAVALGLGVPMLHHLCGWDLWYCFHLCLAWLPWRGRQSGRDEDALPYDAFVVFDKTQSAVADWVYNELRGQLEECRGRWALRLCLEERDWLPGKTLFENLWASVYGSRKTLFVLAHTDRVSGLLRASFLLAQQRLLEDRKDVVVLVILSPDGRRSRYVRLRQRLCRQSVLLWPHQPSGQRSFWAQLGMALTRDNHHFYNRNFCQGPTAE
The experiment is described as follows: TLR9 inhibition reporter assay (HEK-Blue cells, secreted embryonic alkaline phosphatase reporter). To be noted: HEK-Blue cells overexpressing human TLR9, stimulated with ODN2006 5 nM. The method in brief:
(§1)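 HEK-Blue cells overexpressing the respective receptor, with an NF-κB/AP-1-driven SEAP reporter, were pre-treated with compound (0.05 nM–50 μM) for 30 min at room temperature. Stimulation used gardiquimod 7.5 μM (TLR7), R848 15.9 μM (TLR8) or ODN2006 5 nM (TLR9); SEAP was read after 22 h at 37 °C as percent inhibition.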

The target in a further experiment is T2, human TLR8 (Homo sapiens, UniProt Q9NR97).
T2 construct: host or cells: HEK-Blue cells (HEK293-derived reporter line)
T2 sequence (Q9NR97 27-1041): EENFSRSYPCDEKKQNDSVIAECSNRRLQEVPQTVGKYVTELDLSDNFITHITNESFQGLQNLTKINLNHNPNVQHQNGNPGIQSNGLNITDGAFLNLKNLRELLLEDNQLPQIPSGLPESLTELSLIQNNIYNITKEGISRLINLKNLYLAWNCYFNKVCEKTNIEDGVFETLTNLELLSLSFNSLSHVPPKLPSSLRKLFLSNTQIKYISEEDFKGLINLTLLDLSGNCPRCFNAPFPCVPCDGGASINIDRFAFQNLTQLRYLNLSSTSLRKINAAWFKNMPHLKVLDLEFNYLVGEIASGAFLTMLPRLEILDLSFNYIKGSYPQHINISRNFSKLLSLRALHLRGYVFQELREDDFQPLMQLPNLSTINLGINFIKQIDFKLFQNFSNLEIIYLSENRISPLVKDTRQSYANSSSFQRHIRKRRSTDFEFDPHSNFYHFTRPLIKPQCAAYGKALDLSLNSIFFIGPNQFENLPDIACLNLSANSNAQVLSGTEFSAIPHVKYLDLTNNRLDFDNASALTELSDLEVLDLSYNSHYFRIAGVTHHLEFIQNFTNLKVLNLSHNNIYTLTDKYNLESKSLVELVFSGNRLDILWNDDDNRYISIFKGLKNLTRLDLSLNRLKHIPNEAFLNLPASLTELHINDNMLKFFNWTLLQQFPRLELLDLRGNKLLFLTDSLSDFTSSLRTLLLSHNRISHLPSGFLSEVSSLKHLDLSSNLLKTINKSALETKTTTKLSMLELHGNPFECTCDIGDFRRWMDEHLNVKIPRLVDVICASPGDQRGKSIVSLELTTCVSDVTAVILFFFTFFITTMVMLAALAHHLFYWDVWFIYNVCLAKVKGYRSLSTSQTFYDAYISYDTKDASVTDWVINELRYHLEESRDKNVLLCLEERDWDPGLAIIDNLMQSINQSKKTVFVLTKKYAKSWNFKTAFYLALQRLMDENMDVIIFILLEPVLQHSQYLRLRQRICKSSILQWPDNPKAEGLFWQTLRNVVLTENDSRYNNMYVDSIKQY
As to the kind of experiment: TLR8 inhibition reporter assay (HEK-Blue cells, secreted embryonic alkaline phosphatase reporter). To be noted: HEK-Blue cells overexpressing human TLR8, stimulated with R848 15.9 μM; read-out: TLR 8 IC50. The method in brief: as §1
Background: In a reporter assay the amount or activity of a reporter protein is the signal.

In the next experiment the target is T3, human TLR7 (Homo sapiens, UniProt Q9NYK1).
T3 construct: host or cells: HEK-Blue cells (HEK293-derived reporter line)
T3 sequence (Q9NYK1 27-1049): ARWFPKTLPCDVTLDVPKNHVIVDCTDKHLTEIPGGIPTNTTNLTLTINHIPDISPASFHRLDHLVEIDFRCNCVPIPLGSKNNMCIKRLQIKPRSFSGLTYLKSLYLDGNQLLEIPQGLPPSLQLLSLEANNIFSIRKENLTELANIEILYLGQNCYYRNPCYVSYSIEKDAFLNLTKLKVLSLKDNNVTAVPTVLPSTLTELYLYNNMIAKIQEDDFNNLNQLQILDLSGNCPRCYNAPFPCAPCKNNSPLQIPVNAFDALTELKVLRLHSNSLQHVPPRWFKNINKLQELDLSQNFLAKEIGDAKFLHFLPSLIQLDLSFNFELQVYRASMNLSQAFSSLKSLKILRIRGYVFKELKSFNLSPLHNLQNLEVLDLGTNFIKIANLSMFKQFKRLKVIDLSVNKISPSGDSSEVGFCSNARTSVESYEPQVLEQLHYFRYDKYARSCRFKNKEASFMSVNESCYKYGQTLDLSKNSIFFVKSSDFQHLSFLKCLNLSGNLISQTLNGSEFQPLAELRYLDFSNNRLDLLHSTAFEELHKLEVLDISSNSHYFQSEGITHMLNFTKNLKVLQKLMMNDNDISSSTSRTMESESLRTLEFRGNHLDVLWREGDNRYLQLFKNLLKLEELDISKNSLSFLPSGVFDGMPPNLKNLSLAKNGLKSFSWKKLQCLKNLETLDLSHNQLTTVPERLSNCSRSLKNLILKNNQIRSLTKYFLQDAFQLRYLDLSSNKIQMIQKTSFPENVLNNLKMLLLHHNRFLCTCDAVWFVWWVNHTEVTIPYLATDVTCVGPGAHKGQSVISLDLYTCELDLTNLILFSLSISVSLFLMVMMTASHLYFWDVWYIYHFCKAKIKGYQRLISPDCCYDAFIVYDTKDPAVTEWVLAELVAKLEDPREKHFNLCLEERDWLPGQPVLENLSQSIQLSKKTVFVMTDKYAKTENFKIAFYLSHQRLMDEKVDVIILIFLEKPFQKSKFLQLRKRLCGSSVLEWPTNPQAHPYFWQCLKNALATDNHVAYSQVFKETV
The experiment is described as follows: TLR7 inhibition reporter assay (HEK-Blue cells, secreted embryonic alkaline phosphatase reporter). To be noted: HEK-Blue cells overexpressing human TLR7, stimulated with gardiquimod 7.5 μM; read-out: TLR 7 IC50. The essentials: as §1

Setting [1] is: 22 hour incubation, reporter readout.

SMILES strings stand for the structures. Where two headings read alike, the source gives them in different places.

For the compound `COc1ccc(-c2nc3c(C)cc(C4CCN(C5CCN(C6CC6)CC5)CC4)cc3[nH]2)cc1F` [Example 57, 6-(1′-cyclopropyl-[1,4′-bipiperidin]-4-yl)-2-(3-fluoro-4-methoxyphenyl)-4-methyl-1H-benzo[d]imidazole], the IC50 against human TLR9 (setting [1]) is 170 nM; at human TLR9 (read-out: TLR 9 IC50), 171 nM; on human TLR8, above 50000 nM; at human TLR7, 16000 nM.
With `Cc1cc(C2CCN(C3CCN(CC(C)C)CC3)CC2)cc2[nH]c(-c3ccc(S(C)(=O)=O)cc3)nc12` [Example 58, 6-(1′-isobutyl-[1,4′-bipiperidin]-4-yl)-4-methyl-2-(4-(methylsulfonyl)phenyl)-1H-benzo[d]imidazole tris(2,2,2-trifluoroacetate)], the IC50 against human TLR9 (setting [1]) was 47 nM; at human TLR9 (read-out: TLR 9 IC50), 47 nM; on human TLR8 it was above 50000 nM; on human TLR7 it was 3100 nM.
For `Cc1cc(C2CCN(C3CCN(CC(C)C)CC3)CC2)cc2[nH]c(-c3ccnc4ccccc34)nc12` [Example 59, 4-(6-(1′-isobutyl-[1,4′-bipiperidin]-4-yl)-4-methyl-1H-benzo[d]imidazol-2-yl)quinoline], the IC50 on human TLR9 (setting [1]) is 100 nM; at human TLR9 (read-out: TLR 9 IC50), 100 nM; on human TLR8 it was above 50000 nM; at human TLR7, 3800 nM.
With `Cc1cc(-c2nc3c(C)cc(C4CCN(C5CCN(CC(C)C)CC5)CC4)cc3[nH]2)cc(C)n1` [Example 60, 2-(2,6-dimethylpyridin-4-yl)-6-(1′-isobutyl-[1,4′-bipiperidin]-4-yl)-4-methyl-1H-benzo[d]imidazole], the 50% inhibitory concentration (IC50) is 45 nM against human TLR9 (setting [1]), 45 nM on human TLR9 (read-out: TLR 9 IC50), above 50000 nM on human TLR8 and 1500 nM at human TLR7.
On to `Cc1cc(C2CCN(C3CCN(CC(C)C)CC3)CC2)cc2[nH]c(-c3ccc4c(c3)OCCO4)nc12` [Example 62, 2-(2,3-dihydrobenzo[b][1,4]dioxin-6-yl)-6-(1′-isobutyl-[1,4′-bipiperidin]-4-yl)-4-methyl-1H-benzo[d]imidazole], for which the concentration for half-maximal inhibition (IC50) on human TLR9 (setting [1]) was 350 nM; at human TLR9 (read-out: TLR 9 IC50) it was 345 nM; on human TLR8 it was above 50000 nM; on human TLR7, 740 nM.
With `Cc1cc(-c2ccc(N3CCN(C(C)C)CC3)cc2)cc2c1nc(-c1ccc(S(C)(=O)=O)cc1)n2C` [Example 86, 6-(4-(4-isopropylpiperazin-1-yl)phenyl)-1,4-dimethyl-2-(4-(methylsulfonyl)phenyl)-1H-benzo[d]imidazole], the IC50 was 300 nM at human TLR9 (setting [1]), above 50000 nM on human TLR8 and 5200 nM on human TLR7.
In the same order, the values of `CC(C)N1CCC(N2CCC(c3ccc4nc(-c5ccc(S(C)(=O)=O)cc5)[nH]c4c3F)CC2)CC1` [Example 87, 7-fluoro-6-(1′-isopropyl-[1,4′-bipiperidin]-4-yl)-2-(4-(methylsulfonyl)phenyl)-1H-benzo[d]imidazole] are 950 nM, above 50000 nM and above 50000 nM.
With `CC(C)N1CCC(N2CCC(c3ccc4c(nc(-c5ccc(S(C)(=O)=O)cc5)n4C)c3F)CC2)CC1` [Example 88, 4-fluoro-5-(1′-isopropyl-[1,4′-bipiperidin]-4-yl)-1-methyl-2-(4-(methylsulfonyl)phenyl)-1H-benzo[d]imidazole], the half-inhibitory concentration (IC50) was 360 nM at human TLR9 (setting [1]), 363 nM on human TLR9 (read-out: TLR 9 IC50), above 50000 nM at human TLR8 and above 50000 nM on human TLR7.
For `CC(C)N1CCC(N2CCC(c3cc(F)c4c(c3)nc(-c3ccc(S(C)(=O)=O)cc3)n4C)CC2)CC1` [Example 91, 7-fluoro-5-(1′-isopropyl-[1,4′-bipiperidin]-4-yl)-1-methyl-2-(4-(methylsulfonyl)phenyl)-1H-benzo[d]imidazole], the IC50 is 100 nM against human TLR9 (setting [1]), 104 nM at human TLR9 (read-out: TLR 9 IC50), above 50000 nM at human TLR8 and 19400 nM on human TLR7.
Consider `CC(C)N1CCC(N2CCC(c3cc4c(cc3F)nc(-c3ccc(S(C)(=O)=O)cc3)n4C)CC2)CC1` [Example 96, 5-fluoro-6-(1′-isopropyl-[1,4′-bipiperidin]-4-yl)-1-methyl-2-(4-(methylsulfonyl)phenyl)-1H-benzo[d]imidazole], for which the IC50 against human TLR9 (setting [1]) was 73 nM; on human TLR8, above 50000 nM; at human TLR7, 7300 nM.
`CC(C)N1CCC(N2CCC(c3cc4nc(-c5ccc(S(C)(=O)=O)cc5)n(C)c4cc3F)CC2)CC1` [Example 99, 6-fluoro-5-(1′-isopropyl-[1,4′-bipiperidin]-4-yl)-1-methyl-2-(4-(methylsulfonyl)phenyl)-1H-benzo[d]imidazole]: the IC50 against human TLR9 (setting [1]) is 360 nM; at human TLR9 (read-out: TLR 9 IC50) it was 358 nM; at human TLR8, above 50000 nM; at human TLR7 it was 38300 nM.
